Assay results: ChEMBL document CHEMBL3885881, “DrugMatrix”

Species: Rattus norvegicus
Assay: DrugMatrix - Regimen: Daily Repeat
Type: toxicity, organism-based, Sprague-Dawley
Design: regimen Daily Repeat, gender Male, age 6-8 weeks
Settings: in vivo, sc, 54 mg/kg, route subcutaneous, dose level Low, […]
[1] = 72 h, tissue Plasma, time 3 day
[2] = 120 h, tissue Blood, time 5 day
[3] = 120 h, tissue Plasma, time 5 day

Sequence: NYSTATIN
- ABSOLUTE BASOPHIL (72 h, tissue Blood, time 3 day): 0 CELLS/uL
- ABSOLUTE EOSINOPHIL (72 h, tissue Blood, time 3 day): 50 CELLS/uL
- ABSOLUTE LYMPHOCYTE (72 h, tissue Blood, time 3 day): 13843 CELLS/uL
- ABSOLUTE MONOCYTE (72 h, tissue Blood, time 3 day): 920.67 CELLS/uL
- ABSOLUTE SEGMENTED NEUTROPHIL (72 h, tissue Blood, time 3 day): 2486.33 CELLS/uL
- BASOPHIL (72 h, tissue Blood, time 3 day): 0%
- EOSINOPHIL (72 h, tissue Blood, time 3 day): 0.33%
- ERYTHROCYTE COUNT (72 h, tissue Blood, time 3 day): 5.95 x10E6/uL
- HEMATOCRIT (72 h, tissue Blood, time 3 day): 34.97%
- HEMOGLOBIN (72 h, tissue Blood, time 3 day): 13.07 G/DL
- LEUKOCYTE COUNT (72 h, tissue Blood, time 3 day): 17.3 x10E3/uL
- LYMPHOCYTE (72 h, tissue Blood, time 3 day): 80.33%
- MEAN CORPUSCULAR HEMOGLOBIN (72 h, tissue Blood, time 3 day): 21.93 pg
- MEAN CORPUSCULAR HEMOGLOBIN CONCENTRATION (72 h, tissue Blood, time 3 day): 37.37 G/DL
- MEAN CORPUSCULAR VOLUME (72 h, tissue Blood, time 3 day): 58.73 fL
- MONOCYTE (72 h, tissue Blood, time 3 day): 5.33%
- NEUTROPHIL (72 h, tissue Blood, time 3 day): 14%
- NUCLEATED RED BLOOD CELLS (72 h, tissue Blood, time 3 day): 0 /100WBC
- PLATELET COUNT (72 h, tissue Blood, time 3 day): 1209 x10E3/uL
- ALANINE AMINOTRANSFERASE [1]: 35 u/L
- ALBUMIN [1]: 2.97 G/DL
- ALKALINE PHOSPHATASE [1]: 281 u/L
- ASPARTATE AMINOTRANSFERASE [1]: 75.67 u/L
- BLOOD UREA NITROGEN [1]: 18.67 mg/dL
- CARBON DIOXIDE [1]: 21.33 mmol/L
- CHOLESTEROL [1]: 62.33 mg/dL
- CREATINE PHOSPHOKINASE [1]: 212.67 u/L
- CREATININE [1]: 0.18 mg/dL
- LACTATE DEHYDROGENASE [1]: 276.67 u/L
- LIPASE [1]: 6.67 u/L
- PHOSPHORUS [1]: 11.77 mg/dL
- POTASSIUM [1]: 6.36 MEQ/L
- SODIUM [1]: 149.8 MEQ/L
- TOTAL BILIRUBIN [1]: 0.13 mg/dL
- URIC ACID [1]: 2 mg/dL
- ABSOLUTE BASOPHIL [2]: 0 CELLS/uL
- ABSOLUTE EOSINOPHIL [2]: 278 CELLS/uL
- ABSOLUTE LYMPHOCYTE [2]: 19000 CELLS/uL
- ABSOLUTE MONOCYTE [2]: 554 CELLS/uL
- ABSOLUTE SEGMENTED NEUTROPHIL [2]: 5634.67 CELLS/uL
- BASOPHIL [2]: 0%
- EOSINOPHIL [2]: 1%
- ERYTHROCYTE COUNT [2]: 5.2 x10E6/uL
- HEMATOCRIT [2]: 32.27%
- HEMOGLOBIN [2]: 12.13 G/DL
- LEUKOCYTE COUNT [2]: 25.47 x10E3/uL
- LYMPHOCYTE [2]: 76.67%
- MEAN CORPUSCULAR HEMOGLOBIN [2]: 23.37 pg
- MEAN CORPUSCULAR HEMOGLOBIN CONCENTRATION [2]: 37.63 G/DL
- MONOCYTE [2]: 2%
- NEUTROPHIL [2]: 20.33%
- NUCLEATED RED BLOOD CELLS [2]: 0 /100WBC
- PLATELET COUNT [2]: 1747 x10E3/uL
- ALANINE AMINOTRANSFERASE [3]: 31.33 u/L
- ALBUMIN [3]: 2.63 G/DL
- ALKALINE PHOSPHATASE [3]: 261.33 u/L
- ASPARTATE AMINOTRANSFERASE [3]: 76 u/L
- BLOOD UREA NITROGEN [3]: 22.33 mg/dL
- CARBON DIOXIDE [3]: 24.67 mmol/L
- CHLORIDE [3]: 107.33 MEQ/L
- CHOLESTEROL [3]: 48.67 mg/dL
- CREATINE PHOSPHOKINASE [3]: 286 u/L
- CREATININE [3]: 0.17 mg/dL
- GLUCOSE [3]: 135 mg/dL
- LACTATE DEHYDROGENASE [3]: 423.33 u/L
- LIPASE [3]: 7 u/L
- POTASSIUM [3]: 6.66 MEQ/L
- SODIUM [3]: 147.07 MEQ/L
- TOTAL BILIRUBIN [3]: 0.1 mg/dL
- TOTAL PROTEIN [3]: 5.43 G/DL
- URIC ACID [3]: 1.73 mg/dL
